Assay results: patent US20230128402A1 (The Trustees of Princeton University, priority 2020, published 2023)

Key:
[1] = biological target: T1, ALDH1a3 (Homo sapiens, UniProt P47895); assay: Aldh1a3 enzyme inhibition assay, recombinant hALDH1a3; format: biochemical; parameters: made in house; host or cells: E. coli BL21-DE3, pET-Aldh1a3; conditions: resorufin fluorescence, 20° C.
T1 sequence (P47895 1-512): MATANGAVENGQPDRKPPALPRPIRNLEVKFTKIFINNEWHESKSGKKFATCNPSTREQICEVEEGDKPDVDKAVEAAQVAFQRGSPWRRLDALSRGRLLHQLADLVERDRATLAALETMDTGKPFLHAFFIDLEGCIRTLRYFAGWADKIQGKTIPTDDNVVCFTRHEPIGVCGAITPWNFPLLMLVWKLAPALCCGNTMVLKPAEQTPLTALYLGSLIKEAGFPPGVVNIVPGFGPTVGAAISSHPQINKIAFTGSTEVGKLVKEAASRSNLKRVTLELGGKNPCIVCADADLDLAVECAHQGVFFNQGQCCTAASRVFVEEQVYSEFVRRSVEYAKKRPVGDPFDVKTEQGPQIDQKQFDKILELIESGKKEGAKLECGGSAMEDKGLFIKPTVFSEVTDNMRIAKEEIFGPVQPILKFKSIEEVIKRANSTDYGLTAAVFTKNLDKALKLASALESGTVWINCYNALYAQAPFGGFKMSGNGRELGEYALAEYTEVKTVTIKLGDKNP
Text: (§1) Recombinant enzyme and inhibitor added immediately before assay. Reaction rate measured by resorufin fluorescence.

[2] = biological target: T2, mALDH1a3 (Mus musculus, UniProt Q9JHW9); assay: Aldh1a3 enzyme inhibition assay, recombinant mALDH1a3; format: biochemical; conditions: resorufin fluorescence, 20° C.
T2 construct: made in house; host or cells: E. coli BL21-DE3, pET-Aldh1a3
T2 sequence (Q9JHW9 1-512): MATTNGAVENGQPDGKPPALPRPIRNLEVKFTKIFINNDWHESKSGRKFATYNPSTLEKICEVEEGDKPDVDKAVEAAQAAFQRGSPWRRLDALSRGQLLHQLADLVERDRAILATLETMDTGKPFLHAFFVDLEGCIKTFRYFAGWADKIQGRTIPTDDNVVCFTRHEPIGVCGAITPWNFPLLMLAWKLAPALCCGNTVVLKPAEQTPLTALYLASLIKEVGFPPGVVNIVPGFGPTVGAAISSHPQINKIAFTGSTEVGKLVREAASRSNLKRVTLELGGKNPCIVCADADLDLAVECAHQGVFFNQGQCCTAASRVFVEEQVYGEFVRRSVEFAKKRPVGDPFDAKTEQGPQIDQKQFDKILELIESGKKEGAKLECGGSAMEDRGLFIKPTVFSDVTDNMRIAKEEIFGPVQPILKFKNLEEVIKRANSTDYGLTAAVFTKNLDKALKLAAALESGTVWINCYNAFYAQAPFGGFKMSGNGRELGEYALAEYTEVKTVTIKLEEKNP
Text: as §1

Row | Compound | IC50 [1] | IC50 [2]
1 | CCc1cc(C(=O)Nc2ccc3c(c2)CCC(=O)N3)ccn1 [Compound 29] | > 5000 nM | > 5000 nM
2 | CC1(C)Cc2cc(Nc3c[nH]c4c(c3=O)CCCC4)ccc2NC1=O [Compound 135, 3,3-dimethyl-6-[(4-oxo-5,6,7,8-tetrahydro-1H-quinolin-3-yl)amino]-1,4-dihydroquinolin-2-one] | > 5000 nM | > 5000 nM
3 | CC(C)=Cc1cnc(C)cc1C(=O)Nc1ccc2c(c1)CC(C)(C)C(=O)N2 [Compound 69] | > 5000 nM | > 5000 nM
4 | CCc1cnccc1C(=O)Nc1ccc2c(c1)NC(=O)CC2 [Compound 32] | > 5000 nM | > 5000 nM
5 | CCc1c[n+]([O-])ccc1C(=O)Nc1ccc2c(c1)CCC(=O)N2 [Compound 73, 3-ethyl-1-oxido-N-(2-oxo-3,4-dihydro-1H-quinolin-6-yl)pyridin-1-ium-4-carboxamide] | 1000 to 5000 nM | > 5000 nM
6 | N#Cc1cccc2ncc(Nc3ccc4c(c3)CCC(=O)N4)cc12 [Compound 100, 3-[(2-oxo-3,4-dihydro-1H-quinolin-6-yl)amino]quinoline-5-carbonitrile] | > 5000 nM | > 5000 nM
7 | Cc1ccc2nc(Nc3ccc4c(c3)CCC(=O)N4)ccc2c1 [Compound 89, 6-[(6-methyl-2-quinolyl)amino]-3,4-dihydro-1H-quinolin-2-one] | > 5000 nM | 1000 to 5000 nM
8 | COC(=O)c1ccc2ncc(Nc3ccc4c(c3)CC(C)(C)C(=O)N4)nc2c1 [Compound 120, methyl 3-[(3,3-dimethyl-2-oxo-1,4-dihydroquinolin-6-yl)amino]quinoxaline-6-carboxylate] | > 5000 nM | > 5000 nM
9 | CCc1cnccc1C(=O)Nc1ccc2c(c1)C(C)(C)C(=O)N2 [Compound 137] | > 5000 nM | > 5000 nM
10 | CC1(C)Cc2cc(Nc3ccc4cnccc4n3)ccc2NC1=O [Compound 95, 3,3-dimethyl-6-(1,6-naphthyridin-2-ylamino)-1,4-dihydroquinolin-2-one] | > 5000 nM | > 5000 nM
11 | CC1(C)Cc2cc(Nc3nc4ccccc4[nH]3)ccc2NC1=O [Compound 98, 6-(1H-benzimidazol-2-ylamino)-3,3-dimethyl-1,4-dihydroquinolin-2-one] | 1000 to 5000 nM | 1000 to 5000 nM
12 | N#Cc1cccc2nc(Nc3ccc4c(c3)CCC(=O)N4)ccc12 [Compound 86, 2-[(2-oxo-3,4-dihydro-1H-quinolin-6-yl)amino]quinoline-5-carbonitrile] | > 5000 nM | 1000 to 5000 nM
13 | CC1(C)CC(=O)Nc2ccc(Nc3nccc4ccccc34)cc21 [Compound 34, 6-(1-isoquinolylamino)-4,4-dimethyl-1,3-dihydroquinolin-2-one] | > 5000 nM | > 5000 nM
14 | Cc1cc(C(=O)Nc2ccc3c(c2)CCC(=O)N3)ccn1 [Compound 24] | > 5000 nM | > 5000 nM
15 | CC1(C)Cc2cc(NC3COc4ccccc4C3)ccc2NC1=O (stereo not shown) [Compound 105, 6-(chroman-3-ylamino)-3,3-dimethyl-1,4-dihydroquinolin-2-one] | > 5000 nM | > 5000 nM
16 | CCc1cc(C#N)ccc1C(=O)Nc1cc2c(cc1F)NC(=O)C(C)(C)C2 [Compound 42, 4-cyano-2-ethyl-N-(7-fluoro-3,3-dimethyl-2-oxo-1,4-dihydroquinolin-6-yl)benzamide] | 1000 to 5000 nM | 1000 to 5000 nM
17 | CC1(C)Cc2cc(Nc3c[nH]c4ccccc4c3=O)ccc2NC1=O [Compound 115, 3,3-dimethyl-6-[(4-oxo-1H-quinolin-3-yl)amino]-1,4-dihydroquinolin-2-one] | > 5000 nM | > 5000 nM
18 | Cn1ccc2nc(Nc3ccc4c(c3)CC(C)(C)C(=O)N4)ccc21 [Compound 113, 3,3-dimethyl-6-[(1-methylpyrrolo[3,2-b]pyridin-5-yl)amino]-1,4-dihydroquinolin-2-one] | > 5000 nM | > 5000 nM

Second part, the molecule after the results:

Row | IC50 [1] | IC50 [2] | Compound
19 | 100 to 250 nM | 250 to 1000 nM | CCCc1cnccc1C(=O)Nc1ccc2c(c1)CCC(=O)N2 [Compound 60, N-(2-oxo-3,4-dihydro-1H-quinolin-6-yl)-3-propyl-pyridine-4-carboxamide]
20 | 100 to 250 nM | < 100 nM | O=C1CCc2cc(Nc3ccc4ccccc4n3)c(F)cc2N1 [Compound 47, 7-fluoro-6-(2-quinolylamino)-3,4-dihydro-1H-quinolin-2-one]
21 | < 100 nM | 100 to 250 nM | CCc1cnc(C)cc1C(=O)Nc1cc2c(cc1F)NC(=O)CC2 [Compound 8]
22 | 250 to 1000 nM | 250 to 1000 nM | CCc1c(C(=O)Nc2ccc3c(c2)CCC(=O)N3)ccnc1C [Compound 55, 3-ethyl-2-methyl-N-(2-oxo-3,4-dihydro-1H-quinolin-6-yl)pyridine-4-carboxamide]
23 | 1000 to 5000 nM | > 5000 nM | Cc1cc(C(=O)Nc2cc3c(cc2F)NC(=O)C(C)(C)C3)c(CC(C)C)cn1 [Compound 37, N-(7-fluoro-3,3-dimethyl-2-oxo-1,4-dihydroquinolin-6-yl)-5-isobutyl-2-methyl-pyridine-4-carboxamide]
24 | 100 to 250 nM | 100 to 250 nM | CCc1cnccc1/C=C/c1ccc2c(c1)CCC(=O)N2 [Compound 33, 6-[(E)-2-(3-ethyl-4-pyridyl)vinyl]-3,4-dihydro-1H-quinolin-2-one]
25 | 250 to 1000 nM | 1000 to 5000 nM | CCc1cnccc1C(=O)Nc1ccc2c(c1)C(C)(C)CC(=O)N2 [Compound 19, N-(4,4-dimethyl-2-oxo-1,3-dihydroquinolin-6-yl)-3-ethyl-pyridine-4-carboxamide]
26 | 250 to 1000 nM | > 5000 nM | O=C1CCc2cc(NC(=O)c3ccncc3C(F)(F)F)ccc2N1 [Compound 54, N-(2-oxo-3,4-dihydro-1H-quinolin-6-yl)-3-(trifluoromethyl)pyridine-4-carboxamide]
27 | 250 to 1000 nM | 1000 to 5000 nM | CC1(C)Cc2cc(Nc3nc(=O)c4ccccc4[nH]3)ccc2NC1=O [Compound 116, 2-[(3,3-dimethyl-2-oxo-1,4-dihydroquinolin-6-yl)amino]-1H-quinazolin-4-one]
28 | < 100 nM | 250 to 1000 nM | CCc1cnc(Cl)cc1C(=O)Nc1cc2c(cc1F)NC(=O)CC2 [Compound 80, 2-chloro-5-ethyl-N-(7-fluoro-2-oxo-3,4-dihydro-1H-quinolin-6-yl)pyridine-4-carboxamide]
29 | 250 to 1000 nM | 250 to 1000 nM | CC1(C)Cc2cc(Nc3nc4ccccc4o3)ccc2NC1=O [Compound 99, 6-(1,3-benzoxazol-2-ylamino)-3,3-dimethyl-1,4-dihydroquinolin-2-one]
30 | 250 to 1000 nM | 250 to 1000 nM | CCc1cnc(C)cc1C(=O)Nc1cc2c(cc1F)NC(=O)CC2 [Compound 79, 5-ethyl-N-(7-fluoro-2-oxo-3,4-dihydro-1H-quinolin-6-yl)-2-methyl-pyridine-4 carboxamide]
31 | 100 to 250 nM | 1000 to 5000 nM | CCc1c(C(=O)Nc2ccc3c(c2)CCC(=O)N3)cc[nH]c1=O [Compound 50, 3-ethyl-2-oxo-N-(2-oxo-3,4-dihydro-1H-quinolin-6-yl)-1H-pyridine-4-carboxamide]
32 | 100 to 250 nM | 1000 to 5000 nM | CCc1cnccc1C(=O)Nc1ccc2c(c1)CC1(CC1)C(=O)N2 [Compound 61, 3-ethyl-N-(2-oxospiro[1,4-dihydroquinoline-3,1′-cyclopropane]-6-yl)pyridine-4-carboxamide]
